From ChEMBL document CHEMBL1201862, “PubChem BioAssay data set” (2004)
Calls of active or inactive are those of the source.

Assays:
[1] = target: Melanocortin receptor 4 (Homo sapiens, UniProt P32245); format: functional, cell-based;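 further: Cell-based assay with luminescence read-out, confirmatory dose-response testing for agonist activity of biased ligands at MC4R; human U2OS cells with tagged receptor and beta-arrestin; potency of agonists that increase receptor coupling to beta-arrestin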
[2] = target: T1, High affinity choline transporter 1 (Homo sapiens, UniProt Q9GZV3); experiment: CHT inhibitors, dose response, cell-based, 10-point CRC, membrane potential dye (AID 588401); format: functional;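 further: membrane potential dye fluorescence of choline-evoked depolarization via CHT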
T1 sequence (Q9GZV3 whole entry): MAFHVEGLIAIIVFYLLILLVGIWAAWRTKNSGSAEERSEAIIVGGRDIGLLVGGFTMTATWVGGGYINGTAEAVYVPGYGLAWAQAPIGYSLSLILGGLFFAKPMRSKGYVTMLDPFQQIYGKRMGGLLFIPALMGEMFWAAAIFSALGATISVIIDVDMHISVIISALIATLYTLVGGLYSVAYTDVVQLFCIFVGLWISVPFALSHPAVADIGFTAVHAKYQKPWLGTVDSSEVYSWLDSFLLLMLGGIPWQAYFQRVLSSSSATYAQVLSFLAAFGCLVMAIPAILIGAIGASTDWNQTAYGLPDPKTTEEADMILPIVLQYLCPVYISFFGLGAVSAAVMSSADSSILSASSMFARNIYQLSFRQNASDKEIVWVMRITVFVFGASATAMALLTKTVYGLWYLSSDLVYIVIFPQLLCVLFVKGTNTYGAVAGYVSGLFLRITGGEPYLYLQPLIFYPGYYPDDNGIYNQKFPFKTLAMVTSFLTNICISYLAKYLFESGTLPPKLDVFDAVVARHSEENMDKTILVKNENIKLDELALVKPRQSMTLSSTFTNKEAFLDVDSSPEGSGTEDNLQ

[3] = target: T1, High affinity choline transporter 1; experiment: CHT inhibitors, dose response, cell-based, 5-point CRC, membrane potential dye (AID 504840); format: functional
[4] = HepG2 cell cytotoxicity, dose response, cytotoxicity control for Shn3 inhibitor project, CellTiter-Glo, cherry-picked (AID 624134); format: functional, cell-based
[5] = target: Protein Wnt-3a (Mus musculus, UniProt P27467); experiment: Wnt3a-driven reporter signaling inhibition, dose response, selectivity assay for Gli-SUFU antagonist project, Wnt-LIGHT cells, luminescence (AID 651570); format: functional; details: read-out: IC50_Mean;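 further: Wnt-LIGHT reporter cells stimulated with conditioned medium from Wnt3a-producing cells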
[6] = cytotoxicity toward NIH3T3 fibroblasts, dose response, counter-screen, cell-based, ATP luminescence, mouse fibroblasts (AID 2010); format: functional;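 further: cells exposed to compound for about 90 hours before reading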
[7] = inhibitors of intracellular T. cruzi replication, confirmation, NIH3T3 host cells, beta-gal luminescence (AID 2044); format: functional, cell-based;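 further: intracellular parasites grown in NIH/3T3 mouse fibroblasts as host cells; luminescent beta-galactosidase reporter signal from transgenic T. cruzi replicating inside host cells; inhibitors lower the luminescence signal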
[8] = control 3'UTR Renilla luciferase suppression, dose response, counter-screen for Shn3 inhibitor project, cell-based, Clone20-Shn3RL, cherry-picked (AID 624133); format: functional
[9] = Shn3 3'UTR reporter inhibitors, dose response, cell-based, Clone20 osteoblasts, firefly luciferase, cherry-picked (AID 624132); format: functional;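 further: firefly luciferase luminescence from reporter carrying the Shn3 3'UTR in osteoblasts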
[10] = target: 26S proteasome non-ATPase regulatory subunit 14 (Homo sapiens, UniProt O00487); experiment: inhibition of proteasome subunit RPN11 – biochemical, fluorescence polarization, uHTS hits, confirmation (AID 602368); format: functional
[11] = target: Prothrombin (Bos taurus, UniProt P00735); experiment: thrombin inhibition, dose response, biochemical, fluorescence polarization, uHTS hits (AID 602369); format: functional
[12] = target: 72 kDa type IV collagenase (Homo sapiens, UniProt P08253); experiment: Dose Response validation of uHTS RPN11 inhibitor hits using a MMP-2 Fluorescence assay.; format: functional
[13] = target: T2, Sentrin-specific protease 1 (Homo sapiens, UniProt Q9P0U3); experiment: potency of human SENP1 inhibitors, dose response, biochemical, kinetic FRET (AID 651697); format: functional; details: read-out: IC50_Mean
T2 sequence (Q9P0U3 whole entry): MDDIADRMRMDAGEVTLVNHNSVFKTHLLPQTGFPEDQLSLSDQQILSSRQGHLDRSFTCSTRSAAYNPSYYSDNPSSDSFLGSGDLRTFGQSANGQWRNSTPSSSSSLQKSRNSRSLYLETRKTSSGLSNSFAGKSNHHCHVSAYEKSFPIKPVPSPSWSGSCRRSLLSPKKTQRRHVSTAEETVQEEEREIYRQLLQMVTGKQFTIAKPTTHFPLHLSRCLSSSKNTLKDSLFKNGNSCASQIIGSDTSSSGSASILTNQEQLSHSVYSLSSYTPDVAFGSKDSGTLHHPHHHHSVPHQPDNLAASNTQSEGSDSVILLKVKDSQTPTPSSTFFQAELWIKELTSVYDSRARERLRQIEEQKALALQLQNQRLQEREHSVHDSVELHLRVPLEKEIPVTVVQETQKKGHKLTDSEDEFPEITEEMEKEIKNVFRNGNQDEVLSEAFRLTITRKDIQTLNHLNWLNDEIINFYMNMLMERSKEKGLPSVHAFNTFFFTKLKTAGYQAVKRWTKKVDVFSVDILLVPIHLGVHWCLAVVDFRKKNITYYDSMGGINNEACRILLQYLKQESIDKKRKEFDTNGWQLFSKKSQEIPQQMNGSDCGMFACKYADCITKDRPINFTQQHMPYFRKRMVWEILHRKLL

[14] = target: T2, Sentrin-specific protease 1; experiment: Dose response confirmation of small molecule inhibitors of the catalytic domain of the SUMO protease, SENP1 in a FRET assay.; format: functional; details: read-out: IC50_Mean
[15] = target: T3, Endoribonuclease toxin MazF (Escherichia coli K-12, UniProt P0AE70); experiment: MazF toxin RNase activators, dose response, biochemical, fluorescence, single-stranded RNA substrate, uHTS hits (AID 588481); format: functional
T3 sequence (P0AE70 whole entry): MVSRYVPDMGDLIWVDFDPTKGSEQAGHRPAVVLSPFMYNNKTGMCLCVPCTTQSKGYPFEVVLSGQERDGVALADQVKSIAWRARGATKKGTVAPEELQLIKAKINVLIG

[16] = target: T3, Endoribonuclease toxin MazF; experiment: fluorescent RNA oligo signal without MazF, dose response, counter-screen for MazEF activator project, biochemical, fluorescence, single-stranded RNase substrate (AID 588502); format: functional
[17] = target: T4, Mitochondrial peptide methionine sulfoxide reductase (Bos taurus, UniProt P54149); format: functional;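 further: absorbance read-out, biochemical high-throughput dose-response screen for MsrA inhibitors, confirmatory; recombinant bovine MsrA coupled to E. coli TrxB with NADPH and selenocystamine; potency is for inhibitors of MsrA activity on DMSO substrate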
T4 sequence (P54149 whole entry): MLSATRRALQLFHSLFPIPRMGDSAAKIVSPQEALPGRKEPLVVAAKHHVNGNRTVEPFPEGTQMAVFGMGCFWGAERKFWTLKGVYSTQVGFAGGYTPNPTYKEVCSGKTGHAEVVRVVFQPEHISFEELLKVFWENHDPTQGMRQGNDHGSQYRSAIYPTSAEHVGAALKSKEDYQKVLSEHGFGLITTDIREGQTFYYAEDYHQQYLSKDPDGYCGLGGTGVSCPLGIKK

Sequence of 26S proteasome non-ATPase regulatory subunit 14 (O00487 whole entry): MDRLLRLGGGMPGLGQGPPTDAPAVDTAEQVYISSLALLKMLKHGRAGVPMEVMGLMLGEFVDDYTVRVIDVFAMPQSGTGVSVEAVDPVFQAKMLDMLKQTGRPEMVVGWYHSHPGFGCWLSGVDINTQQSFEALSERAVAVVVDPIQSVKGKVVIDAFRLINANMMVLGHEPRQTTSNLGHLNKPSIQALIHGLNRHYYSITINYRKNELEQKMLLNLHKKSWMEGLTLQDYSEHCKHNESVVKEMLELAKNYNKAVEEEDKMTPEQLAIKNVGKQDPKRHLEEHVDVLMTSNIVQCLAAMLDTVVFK
Sequence of 72 kDa type IV collagenase (P08253 whole entry): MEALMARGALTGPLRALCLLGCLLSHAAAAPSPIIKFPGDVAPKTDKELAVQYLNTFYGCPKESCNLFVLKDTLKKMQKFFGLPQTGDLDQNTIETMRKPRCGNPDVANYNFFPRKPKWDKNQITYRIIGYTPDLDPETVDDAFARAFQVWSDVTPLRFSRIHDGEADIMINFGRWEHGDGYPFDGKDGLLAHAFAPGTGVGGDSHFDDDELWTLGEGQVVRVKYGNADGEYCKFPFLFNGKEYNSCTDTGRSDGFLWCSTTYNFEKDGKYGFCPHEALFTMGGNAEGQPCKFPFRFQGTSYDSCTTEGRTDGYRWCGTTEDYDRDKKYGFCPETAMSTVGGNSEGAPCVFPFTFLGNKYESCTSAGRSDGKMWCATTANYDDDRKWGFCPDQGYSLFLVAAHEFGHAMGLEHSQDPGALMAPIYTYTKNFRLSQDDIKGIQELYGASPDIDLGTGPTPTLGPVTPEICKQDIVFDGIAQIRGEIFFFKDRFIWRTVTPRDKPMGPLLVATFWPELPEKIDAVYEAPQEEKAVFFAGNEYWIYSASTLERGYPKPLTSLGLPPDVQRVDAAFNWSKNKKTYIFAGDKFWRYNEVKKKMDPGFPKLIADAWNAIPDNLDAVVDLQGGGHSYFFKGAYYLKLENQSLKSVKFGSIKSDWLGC
Sequence of Melanocortin receptor 4 (P32245 whole entry): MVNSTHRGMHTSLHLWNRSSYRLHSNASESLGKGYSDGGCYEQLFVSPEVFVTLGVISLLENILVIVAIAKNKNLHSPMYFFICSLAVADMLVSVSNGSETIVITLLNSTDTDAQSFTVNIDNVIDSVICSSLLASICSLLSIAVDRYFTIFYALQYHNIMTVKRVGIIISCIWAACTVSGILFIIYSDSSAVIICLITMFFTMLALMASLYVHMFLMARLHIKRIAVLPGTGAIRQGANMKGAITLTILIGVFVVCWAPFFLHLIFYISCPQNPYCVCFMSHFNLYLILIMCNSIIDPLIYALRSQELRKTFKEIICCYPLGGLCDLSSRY
Sequence of Protein Wnt-3a (P27467 whole entry): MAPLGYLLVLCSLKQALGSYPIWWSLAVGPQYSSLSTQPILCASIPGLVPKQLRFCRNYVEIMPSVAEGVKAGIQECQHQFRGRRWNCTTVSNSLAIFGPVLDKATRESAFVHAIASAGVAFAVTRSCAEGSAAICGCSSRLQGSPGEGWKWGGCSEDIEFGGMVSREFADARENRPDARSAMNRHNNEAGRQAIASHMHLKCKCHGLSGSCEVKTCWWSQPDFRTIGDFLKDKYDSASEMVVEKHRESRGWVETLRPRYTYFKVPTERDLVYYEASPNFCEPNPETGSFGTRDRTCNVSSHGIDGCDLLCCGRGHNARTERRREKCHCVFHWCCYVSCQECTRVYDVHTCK

Structure (SMILES): O=C1OC(c2ccccc2)(c2ccc(O)cc2)c2ccccc21 (centres undefined)
- EC50 [1]: > 89.2 µM (inactive)

Structure (SMILES): CCCn1c2ccccc2c2cnn(CC(=O)NCCCN3CCN(c4ccccc4)CC3)c(=O)c21
- IC50 [2]: 2.84 µM (active)
- IC50 [3]: 2.49 µM (active)

Structure (SMILES): CCn1/c(=N\C(=O)CS(=O)(=O)c2ccccc2)sc2cccc(OC)c21
- AC50 [4]: > 70 µM (inactive)
- IC50 [5]: 1.03 µM (active)
- EC50 [6]: > 60 µM (not active)
- EC50 [7]: 1.74 µM (active)
- AC50 [8]: 1.58 µM (active)
- AC50 [9]: 1.68 µM (active)

Structure (SMILES): C[C@]12CCC[C@H](O1)c1c(cc3c(c1O)C(=O)c1c(O)cc(O)cc1C3=O)O2
- IC50 [10]: 2.94 µM (active)
- IC50 [11]: 4.81 µM (active)
- IC50 [12]: 78.4 µM (active)

Structure (SMILES): CC(=O)Nc1cc(-c2ccc(N3CCN(C)CC3)cc2)cn2c(-c3ccccc3)cnc12
- IC50 [13]: 24.1 µM (inactive)
- IC50 [14]: 12.2 µM (active)

Structure (SMILES): Cc1cc(O)cc(O)c1/C=N/Cc1ccco1
- EC50 [15]: > 99 µM (inactive)
- EC50 [16]: 21.9 µM (inactive)

Structure (SMILES): C/C(CC(C)C)=N/Nc1ccc([N+](=O)[O-])cc1[N+](=O)[O-]
- IC50 [17]: 155 µM (inactive)

Structure (SMILES): Nc1nc(N)c2sc3nc(C(F)(F)F)cc(C(F)(F)F)c3c2n1
- IC50 [13]: 30 µM (inactive)
- IC50 [14]: 16.7 µM (active)

Structure (SMILES): CCc1cccc(CC)c1NC(=O)c1cccc(S(=O)(=O)N2CCN(C)CC2)c1
- IC50 [2]: 8.43 µM (active)
- IC50 [3]: 7.52 µM (active)

Structure (SMILES): COc1ccccc1Cc1c(-c2cccc(Br)c2)nc2ccc(Cl)cn12
- IC50 [10]: 8.48 µM (active)
- IC50 [11]: 13 µM (active)
- IC50 [12]: > 100 µM (inactive)
